Test [1] has as its target T1, 5-hydroxytryptamine receptor 2A (Homo sapiens, UniProt P28223). The test is classed as functional, cell-based.
The next test concerns the target Histamine H1 receptor (Homo sapiens, UniProt P35367).
For test [2], the target named is Muscarinic acetylcholine receptor M3 (Homo sapiens, UniProt P20309).
The target of test [3] is T1, 5-hydroxytryptamine receptor 2A. It is filed as functional, cell-based. The source holds these as a separate data set.
The target of test [4] is T2, Muscarinic acetylcholine receptor M1 (Homo sapiens, UniProt P11229).
T2 sequence (P11229 whole entry): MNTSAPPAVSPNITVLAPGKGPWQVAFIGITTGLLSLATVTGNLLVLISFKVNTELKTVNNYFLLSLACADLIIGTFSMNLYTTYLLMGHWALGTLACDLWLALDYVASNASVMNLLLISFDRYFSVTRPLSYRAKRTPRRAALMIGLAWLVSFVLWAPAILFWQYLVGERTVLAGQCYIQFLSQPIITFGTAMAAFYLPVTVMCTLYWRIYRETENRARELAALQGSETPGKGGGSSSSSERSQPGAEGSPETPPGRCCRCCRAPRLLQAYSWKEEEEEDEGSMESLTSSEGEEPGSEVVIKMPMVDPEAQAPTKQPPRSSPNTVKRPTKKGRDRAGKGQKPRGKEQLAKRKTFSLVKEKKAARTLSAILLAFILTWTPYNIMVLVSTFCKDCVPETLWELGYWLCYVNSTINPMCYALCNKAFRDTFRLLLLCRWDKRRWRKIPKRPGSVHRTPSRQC
It is filed as functional.

The target in the next test is T3, Glucocorticoid receptor (Homo sapiens, UniProt P04150).
T3 sequence (P04150 whole entry): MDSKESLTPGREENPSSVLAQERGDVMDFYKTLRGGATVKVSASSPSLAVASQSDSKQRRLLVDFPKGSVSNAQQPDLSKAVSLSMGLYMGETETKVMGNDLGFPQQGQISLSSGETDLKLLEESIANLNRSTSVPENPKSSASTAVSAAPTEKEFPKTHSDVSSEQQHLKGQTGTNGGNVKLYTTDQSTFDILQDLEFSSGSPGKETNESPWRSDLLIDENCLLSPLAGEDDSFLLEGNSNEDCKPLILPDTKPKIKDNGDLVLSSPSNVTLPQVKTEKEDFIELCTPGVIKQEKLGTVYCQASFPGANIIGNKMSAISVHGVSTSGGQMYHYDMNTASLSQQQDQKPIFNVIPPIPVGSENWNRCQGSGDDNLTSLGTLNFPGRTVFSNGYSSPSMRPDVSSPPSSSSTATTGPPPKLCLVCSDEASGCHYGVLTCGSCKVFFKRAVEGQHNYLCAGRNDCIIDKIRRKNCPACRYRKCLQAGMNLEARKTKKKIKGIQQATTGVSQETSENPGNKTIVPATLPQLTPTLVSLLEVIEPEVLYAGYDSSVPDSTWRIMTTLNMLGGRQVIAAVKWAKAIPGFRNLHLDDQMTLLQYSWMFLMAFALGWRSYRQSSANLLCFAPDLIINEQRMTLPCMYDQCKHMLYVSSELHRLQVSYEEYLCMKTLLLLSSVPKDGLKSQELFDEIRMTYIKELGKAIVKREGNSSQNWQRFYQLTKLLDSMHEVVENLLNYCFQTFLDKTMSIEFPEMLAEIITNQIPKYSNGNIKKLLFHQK

A further test deals with T4, Endothelin-1 receptor (Homo sapiens, UniProt P25101).
T4 sequence (P25101 whole entry): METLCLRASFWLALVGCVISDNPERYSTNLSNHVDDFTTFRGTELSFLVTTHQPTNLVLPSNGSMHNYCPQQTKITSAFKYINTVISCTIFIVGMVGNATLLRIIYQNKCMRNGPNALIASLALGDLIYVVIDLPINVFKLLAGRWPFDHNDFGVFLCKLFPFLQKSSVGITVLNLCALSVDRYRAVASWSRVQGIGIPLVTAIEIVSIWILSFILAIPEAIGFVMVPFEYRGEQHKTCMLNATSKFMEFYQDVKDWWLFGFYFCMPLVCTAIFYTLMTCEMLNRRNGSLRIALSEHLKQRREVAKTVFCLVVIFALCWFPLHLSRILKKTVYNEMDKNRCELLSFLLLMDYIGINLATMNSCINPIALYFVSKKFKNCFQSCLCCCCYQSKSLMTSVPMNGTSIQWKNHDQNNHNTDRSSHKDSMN

For test [5], the target named is Beta-2 adrenergic receptor (Homo sapiens, UniProt P07550). It is filed as functional, cell-based.
Beta-2 adrenergic receptor, sequence (P07550 whole entry): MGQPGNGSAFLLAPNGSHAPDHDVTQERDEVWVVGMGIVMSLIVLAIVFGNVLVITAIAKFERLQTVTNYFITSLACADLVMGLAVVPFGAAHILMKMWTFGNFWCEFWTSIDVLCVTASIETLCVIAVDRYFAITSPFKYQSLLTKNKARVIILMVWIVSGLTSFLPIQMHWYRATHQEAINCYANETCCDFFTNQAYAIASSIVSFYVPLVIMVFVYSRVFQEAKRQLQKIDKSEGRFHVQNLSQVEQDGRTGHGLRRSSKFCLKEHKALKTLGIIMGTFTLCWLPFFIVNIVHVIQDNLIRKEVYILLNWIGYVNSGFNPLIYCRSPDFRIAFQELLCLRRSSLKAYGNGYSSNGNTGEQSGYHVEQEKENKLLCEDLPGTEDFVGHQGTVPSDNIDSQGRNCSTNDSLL

For 27 molecules, AC50 results are on record in ChEMBL document CHEMBL5291721, “A preclinical secondary pharmacology resource illuminates target-adverse drug reaction associations of marketed drugs” (Nat Commun, 2023).

Each structure is given as a SMILES string.
Further: assay procedure not described here.

Histamine H1 receptor, sequence (P35367 whole entry): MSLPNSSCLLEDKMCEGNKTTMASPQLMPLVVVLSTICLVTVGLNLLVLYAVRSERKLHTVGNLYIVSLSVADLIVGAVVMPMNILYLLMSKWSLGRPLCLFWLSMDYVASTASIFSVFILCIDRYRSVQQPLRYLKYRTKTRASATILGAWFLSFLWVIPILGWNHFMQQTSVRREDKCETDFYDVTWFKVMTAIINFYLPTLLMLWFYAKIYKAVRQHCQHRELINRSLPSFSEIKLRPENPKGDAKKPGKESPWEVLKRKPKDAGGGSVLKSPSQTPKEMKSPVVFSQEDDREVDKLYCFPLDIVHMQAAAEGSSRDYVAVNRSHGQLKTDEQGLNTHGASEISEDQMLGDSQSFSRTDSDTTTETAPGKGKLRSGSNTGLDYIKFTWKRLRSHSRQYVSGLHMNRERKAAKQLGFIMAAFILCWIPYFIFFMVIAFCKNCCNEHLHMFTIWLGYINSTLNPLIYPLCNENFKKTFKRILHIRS
T1 sequence (P28223 whole entry): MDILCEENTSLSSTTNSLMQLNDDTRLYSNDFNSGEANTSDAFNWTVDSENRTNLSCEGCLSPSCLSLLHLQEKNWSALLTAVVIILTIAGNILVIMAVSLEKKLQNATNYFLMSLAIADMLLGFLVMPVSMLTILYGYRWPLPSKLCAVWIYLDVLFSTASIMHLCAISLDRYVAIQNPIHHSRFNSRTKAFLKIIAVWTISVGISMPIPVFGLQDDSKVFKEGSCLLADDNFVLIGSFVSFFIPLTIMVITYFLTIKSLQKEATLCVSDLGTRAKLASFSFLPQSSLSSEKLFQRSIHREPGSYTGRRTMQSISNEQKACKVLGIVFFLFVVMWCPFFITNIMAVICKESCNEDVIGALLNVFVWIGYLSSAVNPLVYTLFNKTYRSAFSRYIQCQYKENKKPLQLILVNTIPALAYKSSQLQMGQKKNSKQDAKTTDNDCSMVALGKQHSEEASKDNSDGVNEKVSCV
Muscarinic acetylcholine receptor M3, sequence (P20309 whole entry): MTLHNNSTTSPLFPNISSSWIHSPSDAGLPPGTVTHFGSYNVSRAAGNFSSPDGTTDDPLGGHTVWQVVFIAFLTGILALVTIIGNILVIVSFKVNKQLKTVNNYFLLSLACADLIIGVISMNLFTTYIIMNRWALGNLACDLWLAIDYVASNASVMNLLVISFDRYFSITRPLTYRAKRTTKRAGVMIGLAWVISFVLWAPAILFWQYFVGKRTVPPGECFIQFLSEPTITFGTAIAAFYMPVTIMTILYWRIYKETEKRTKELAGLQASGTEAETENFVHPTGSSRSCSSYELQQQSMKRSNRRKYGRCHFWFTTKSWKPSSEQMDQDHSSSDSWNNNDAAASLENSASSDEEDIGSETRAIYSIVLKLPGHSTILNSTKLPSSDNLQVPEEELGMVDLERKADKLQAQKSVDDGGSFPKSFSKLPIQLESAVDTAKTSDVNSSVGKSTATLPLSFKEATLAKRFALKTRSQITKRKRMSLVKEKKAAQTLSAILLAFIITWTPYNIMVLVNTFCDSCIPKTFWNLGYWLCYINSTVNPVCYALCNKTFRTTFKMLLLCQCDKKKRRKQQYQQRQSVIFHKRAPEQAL

Broadly, the AC50 is the concentration at which the activity in the assay is half-maximal. A high value points to activity only at high concentration. With `C[N+]1(C)CCC(=C(c2ccccc2)c2ccccc2)CC1`, the AC50 in test [1] is > 10 µM; on Histamine H1 receptor, 2.9 µM; in test [2] it was 0.19 µM; in test [3] it was 19 µM; in test [4] it was 0.41 µM; on Glucocorticoid receptor, > 10 µM.

Take `C[N+](C)(C)CCOP(=O)([O-])OC[C@H](O)CO`: the AC50 (at Endothelin-1 receptor; in test [5]; on Glucocorticoid receptor) was > 30 µM in each case.

As to `CN(C)Cc1nnc2n1-c1ccc(Cl)cc1C(c1ccccc1)=NC2` [ADINAZOLAM], the half-maximal activity concentration (AC50) (at Histamine H1 receptor; in test [4]; at Glucocorticoid receptor) was > 10 µM in each case.

In the case of `CN(C)C/C=C/C(=O)Nc1cc2c(Nc3ccc(F)c(Cl)c3)ncnc2cc1O[C@H]1CCOC1` [AFATINIB], the half-maximal activity concentration (AC50) (in test [1]; on Endothelin-1 receptor; on Histamine H1 receptor; in test [2]; in test [3]; in test [4]) was > 30 µM each time. The AC50 (in test [5]; at Glucocorticoid receptor) was > 30 µM in each case.

Consider `Cc1ccccc1-n1c(CF)nc2ccc(N)cc2c1=O` [AFLOQUALONE], for which the AC50 in test [1] is > 10 µM; on Histamine H1 receptor it was > 10 µM; in test [2], > 30 µM; in test [3], > 10 µM; in test [4], > 10 µM.

As to `CCC1(c2ccc(N)cc2)CCC(=O)NC1=O` (stereo not given) [AMINOGLUTETHIMIDE], the AC50 (on Endothelin-1 receptor; in test [5]; at Glucocorticoid receptor) was > 30 µM each time.

Turning to `CC1=C(C(=O)OC(C)C)C(c2cccc([N+](=O)[O-])c2)C(C(=O)OC2CN(C(c3ccccc3)c3ccccc3)C2)=C(N)N1` (stereo not given) [AZELNIDIPINE], the concentration at half-maximal activity (AC50) (in test [1]; at Endothelin-1 receptor; at Histamine H1 receptor; in test [2]; in test [3]; in test [4]) was > 30 µM throughout. For the same molecule, the half-maximal activity concentration (AC50) on Glucocorticoid receptor is > 30 µM.

Turning to `CC(Cc1cccc(C(F)(F)F)c1)NCCOC(=O)c1ccccc1` (stereo not given) [BENFLUOREX], the AC50 in test [1] is > 30 µM; on Endothelin-1 receptor it was > 30 µM; on Histamine H1 receptor it was 13.5 µM; in test [2], 27 µM; in test [3], 6.86 µM; in test [4] it was > 30 µM. Moreover, the AC50 (in test [5]; on Glucocorticoid receptor) was > 30 µM in each case.

Take `CCOC(=O)c1ccc(N)cc1` [BENZOCAINE]: on Glucocorticoid receptor, the AC50 is > 10 µM.

Consider `CC(C)(Oc1ccc(CCNC(=O)c2ccc(Cl)cc2)cc1)C(=O)O` [BEZAFIBRATE], for which, at Glucocorticoid receptor, the concentration at half-maximal activity (AC50) was > 10 µM.

For the molecule `C/C=C(/C(=C/C)c1ccc(O)cc1)c1ccc(O)cc1` [DIENESTROL], the half-maximal activity concentration (AC50) was > 10 µM in test [1]; > 10 µM on Histamine H1 receptor; > 30 µM in test [2]; > 10 µM in test [3]; 0.736 µM on Glucocorticoid receptor.

Regarding `CN[C@]1(c2ccccc2Cl)CCCCC1=O` [ESKETAMINE], the AC50 on Endothelin-1 receptor and at Glucocorticoid receptor was > 30 µM throughout.

Regarding `COc1ccc([C@@H]2CC(=O)c3c(O)cc(O)cc3O2)cc1O` [HESPERETIN], the concentration at half-maximal activity (AC50) in test [1] was > 10 µM; on Histamine H1 receptor, > 10 µM; in test [2] it was > 30 µM; in test [3], > 10 µM; in test [4] it was > 10 µM; on Glucocorticoid receptor it was > 10 µM.

Consider `CNCCc1ccc(OC(=O)C(C)C)c(OC(=O)C(C)C)c1` [IBOPAMINE], for which the AC50 (in test [1]; on Endothelin-1 receptor; on Histamine H1 receptor; in test [2]; in test [3]; in test [4]) was > 30 µM in each case. Besides, the AC50 was 9.93 µM in test [5] and > 30 µM at Glucocorticoid receptor.

For `CCOC(=O)C1=C(C)NC(C)=C(C(=O)OCC)C1c1ccccc1/C=C/C(=O)OC(C)(C)C` [LACIDIPINE], the concentration at half-maximal activity (AC50) at Endothelin-1 receptor and on Glucocorticoid receptor was > 30 µM in each case.

Regarding `CCC[C@@H]1C[C@@H](C(=O)N[C@@H]([C@H]2O[C@H](SC)[C@H](O)[C@@H](O)[C@H]2O)[C@@H](C)O)N(C)C1` [LINCOMYCIN], the AC50 in test [5] was > 30 µM; at Glucocorticoid receptor, > 10 µM.

In the case of `COC(=O)C1=C(C)NC(C)=C(C(=O)OCCN2CCN(C(c3ccccc3)c3ccccc3)CC2)C1c1cccc([N+](=O)[O-])c1` (stereo not given) [MANIDIPINE 6300], the AC50 is > 30 µM in test [1]; > 30 µM at Endothelin-1 receptor; 3.7 µM on Histamine H1 receptor; > 30 µM in test [2]; > 30 µM in test [3]; > 30 µM in test [4]. The half-maximal activity concentration (AC50) (in test [5]; on Glucocorticoid receptor) was > 30 µM in each case.

With `C=C1c2cccc(O)c2C(=O)C2=C(O)[C@]3(O)C(=O)C(C(N)=O)=C(O)[C@@H](N(C)C)[C@@H]3[C@@H](O)[C@H]12` [METHACYCLINE], the half-maximal activity concentration (AC50) in test [1] was > 10 µM; at Histamine H1 receptor it was > 10 µM; in test [2], > 30 µM; in test [3], > 10 µM; in test [4], > 10 µM; on Glucocorticoid receptor it was > 30 µM.

Take `Cc1ccccc1N1C(=O)c2cc(S(N)(=O)=O)c(Cl)cc2NC1C` (stereo not given) [METOLAZONE]: at Glucocorticoid receptor, the AC50 is > 10 µM.

Turning to `O=C(O)c1cccnc1Nc1cccc(C(F)(F)F)c1` [NIFLUMIC ACID], the concentration at half-maximal activity (AC50) on Glucocorticoid receptor is > 10 µM.

On to `O=C1c2cccc3c2[C@H](CCC3)CN1[C@@H]1CN2CCC1CC2` [PALONOSETRON], for which the half-maximal activity concentration (AC50) in test [1] is > 30 µM; in test [2] it was 28 µM; in test [3], > 30 µM; in test [4], > 30 µM; on Glucocorticoid receptor, > 30 µM.

For the molecule `O=C1c2ccccc2C(=O)C1c1ccccc1` [PHENINDIONE], the half-maximal activity concentration (AC50) at Glucocorticoid receptor was > 10 µM.

Take `Cc1cccc(C)c1NC(=O)CC12CCCN1CCC2` [PILSICAINIDE]: the AC50 (in test [1]; on Endothelin-1 receptor; at Histamine H1 receptor; in test [2]; in test [3]; in test [4]) was > 30 µM each time. Moreover, the AC50 at Glucocorticoid receptor was > 30 µM.

For the molecule `CC(C)c1cccc(C(C)C)c1O` [PROPOFOL], the half-maximal activity concentration (AC50) (at Endothelin-1 receptor; in test [5]) was > 30 µM throughout.

Turning to `CCCN1CC(NS(=O)(=O)N(CC)CC)CC2Cc3c(O)cccc3CC21` (stereo not given) [QUINAGOLIDE], the AC50 was > 30 µM on Endothelin-1 receptor; 2.8 µM on Histamine H1 receptor; > 30 µM in test [2]; > 30 µM in test [4]; > 30 µM in test [5]; > 30 µM at Glucocorticoid receptor.

Regarding `C[C@]12C=CC(=O)C=C1CC[C@@H]1[C@@H]2CC[C@]2(C)OC(=O)CC[C@@H]12` [TESTOLACTONE], the AC50 in test [1] was > 30 µM; on Histamine H1 receptor, > 10 µM; in test [2], > 30 µM; in test [3], > 30 µM; in test [4], > 10 µM; in test [5], > 30 µM.

For `CCOC(=O)c1c(CSc2ccccc2)n(C)c2cc(Br)c(O)c(CN(C)C)c12` [UMIFENOVIR], the AC50 is > 30 µM in test [1]; > 30 µM at Endothelin-1 receptor; 30 µM at Histamine H1 receptor; > 30 µM in test [2]; 6.7 µM in test [3]; 18 µM in test [4]. In addition, the concentration at half-maximal activity (AC50) at Glucocorticoid receptor is > 30 µM.
